{"source": "patent US7795208B2", "about": "“Methods of using deacetylase inhibitors to promote cell differentiation and regeneration” (The Salk Institute for Biological Study, priority 2001, dated 2010)", "key": {"E2F-responsive construct": {"tested_on": "E2F-responsive construct", "test": "Luciferase assay of E2F-responsive construct", "type": "cell-based, mouse", "conditions": "cells exposed to DI in DM", "method": "FIGS. 2A-D are graphs showing DI activation muscle-specific transcription in skeletal muscle cells. […] Luciferase activity was measured in non-treated cells cultured in either GM (GM) or DM (DM). […] The reporter activity was also analyzed in cells differentiated in the absence of TSA (DM) Mouse muscle myoblast C2C12 cells (obtained from the American Type Culture Collection, ATCC CRL-1772) and CC42 cells (from Dr. Kenneth Walsh, Tufts University School of Medicine) were cultured in DMEM supplemented with 20% fetal bovine serum, 2 mM glutamine and 1× kanamycin (growth medium, GM). Cellular differentiation was induced with DMEM supplemented with 2% horse serum and 1× insulin, transferring, selenium (Life Technologies). Human skeletal myocytes (CC-2561) were purchased from Clonetics. Stable C2C12 cell lines with integrated reporters are described in Wu, Z., et al., Mol Cell Biol 20:3951-64 (2000). The MCK-luc, 4RE-luc, MEF2 reporter constructs have been described in Puri, P. L., et al., EMBO Journal 16:369-83 (1997a) and Sartorelli, V., et al., Molecular & Cellular Biology 17:1010-26 (1997). The E2F-luc plasmid is described in […]., et al., Genes Dev 7:1850-61 (1993). […] Following transfections, luciferase activity was determined using the Dual-Luciferase reporter assay system (Promega) on a microtiter luminescence detection system (MLX, Dynex)."}, "MLC3F-lacZ-nls construct": {"tested_on": "MLC3F-lacZ-nls construct", "test": "β-Galactosidase assay of cells transfected with MLC3F-lacZ-nls", "type": "cell-based, mouse", "conditions": "transfected cells exposed in GM, then DM 48 hours; vs non-treated cells", "method": "FIGS. 4A-C illustrate that embryos exposed to DI display enhanced somitogenesis and increased muscle gene expression. […] Cells were then exposed to TSA (50 nM) in GM and subsequently switched to DM for 48 hours. Cells were stained to detect β-galactosidase activity. FIG. 4B is a picture of E 10.5 embryos derived from MLC1/3F-nLacZ transgenic mice exposed to either TSA or VPA treatment (see Example 1) and stained for 1 hour at 30° C. to detect β-galactosidase activity. […] FIG. 4C is a Western blot of extracts derived from total embryos exposed to either TSA or VPA; MHC is detected.\nCells transfected with MLC-lacZ-nls were washed twice in PBS, fixed in 4% paraformaldeheyde-PBS for 5 min, washed twice in PBS, and stained for 2-5 hrs with 5 mM potassium ferrycyanide, 5 mM potassium ferrocyanide, 2 mM MgCl2, 1 mg/ml X-gal (5-bromo-4-chloro-3-indolyl-β-D-galactoside)."}, "[1]": {"tested_on": "human skeletal myocytes (HSkM)", "test": "MHC-positive myotube formation in primary human skeletal myocytes", "type": "cell-based", "conditions": "HSkM treated 24 hours in GM, then DM without TSA 48 hours", "method": "Cellular extracts were obtained and analyzed by Western blotting for the presence of MHC, tubulin, and myogenin. […] Nuclei were stained with DAPI. […] Additionally, RT-PCR was performed on RNA obtained form cells treated with TSA (T) or without (-) TSA with specific primers for either MCK or GAPDH. […] Nuclei were stained with DAPI. […] Cells were grown in GM and treated with TSA for 24 hours, then switched to DM in the absence of TSA for additional 48 hours. Nuclei were stained with DAPI. Additionally, a Western blot analysis of MHC and tubulin expression in either untreated or TSA-treated (T) HSkM is shown. […] Nuclei were stained with DAPI. Mouse muscle myoblast C2C12 cells (obtained from the American Type Culture Collection, ATCC CRL-1772) and CC42 cells (from Dr. Kenneth Walsh, Tufts University School of Medicine) were cultured in DMEM supplemented with 20% fetal bovine serum, 2 mM glutamine and 1× kanamycin (growth medium, GM). Cellular differentiation was induced with DMEM supplemented with 2% horse serum and 1× insulin, transferring, selenium (Life Technologies). Human skeletal myocytes (CC-2561) were purchased from Clonetics. […] Following transfections, luciferase activity was determined using the Dual-Luciferase reporter assay system (Promega) on a microtiter luminescence detection system (MLX, Dynex). […]"}}}
{"smiles": "CC(/C=C/C(=O)NO)=C\\[C@@H](C)C(=O)c1ccc(N(C)C)cc1", "note": "[TSA, trichostatin A]", "values": [{"measurement": "transcription driven from an E2F-responsive construct", "setting": "E2F-responsive construct", "result": "stimulated"}, {"measurement": "β-galactosidase-positive nuclei", "setting": "MLC3F-lacZ-nls construct", "result": "increased β-galactosidase-positive nuclei"}, {"measurement": "formation of MHC-positive myotubes and MHC expression levels", "setting": "[1]", "result": "greatly enhanced the formation of MHC-positive myotubes and increased the MHC expression levels"}]}
